In patent US20240059729A1, “MULTIFUNCTIONAL CYCLIC DINUCLEOTIDE AND USE THEREOF” (TYLIGAND BIOSCIENCE (SHANGHAI) LIMITED, priority 2020, published 2024):
Where a name gives a salt, the structure may show the parent alone.

Experiment: Discovery and identification of metabolites in hepatocytes
Type: in vitro ADME, mouse, rat, dog, monkey, human
Settings: 5 species of hepatocytes, 240 min; FIG. 4-B
Text: The main metabolites of the compounds of the invention in 5 species (mouse, rat, dog, monkey, human) of hepatocytes were similarly identified according to standard methods of in vitro metabolic stability studies conventional in the art, for example (Kems, Edward H. and Di Li (2008). Drug-like Properties: Concepts, Structure Design and Methods: From ADME to Toxicity Optimization, San Diego: Academic Press; Di, Li et al, Optimization of a High Throughput Microsomal Stability Screening Assay for Profiling Drug Discovery Candidates, J Biomol Screen. 2003, 8(4), 453).
The hepatocytes used in the experiment: human hepatocytes (SHQY, Cat. #BQHPCH10, Lot. #HEP190006-TA05), dog hepatocytes (BioIVT, Cat. #M00205, Lot. #ZMB); monkey hepatocytes (XENOTECH, Cat. #PPCH2000, Lot. #2010022), rat hepatocytes (SHQY, Cat. #BQR1000⋅H15, Lot. #HEP134049), and mouse hepatocytes (BioIVT, Cat. #M005052, Lot. #MEO).
A HI hepatocyte maintenance medium (BIOIVT, Cat. #Z99009; Lot. #C02060C) was pre-warmed to 37° C. Cryopreserved hepatocyte tubes were removed from a liquid nitrogen tank and immediately placed in a shaking water bath at 37±1° C. for 2 minutes±15 seconds. […] The hepatocytes were counted and then the cell suspension was diluted in HI medium to the appropriate density (viable cell density=2×10^6 cells/mL). […]

Nc1nc2c(ncn2[C@@H]2O[C@@H]3CO[P@@](=O)(S)OC4C(F)[C@H](n5cnc6c(N)nc(Cl)nc65)O[C@@H]4CO[P@@](=O)(S)OC2C3O)c(=O)[nH]1 (stereo partly drawn) [Example 10, (2′,3′)-cyclo-(Rp,Rp)-[2′-O-phosphorothioate-diester-guanosine]-[3′-O-phosphorothioate-diester-2-chloro-2′-deoxy-2′-fluoro-beta-adenosine] diammonium salt]
Main metabolite in hepatocytes: Clofarabine
